In paper PMC5598505 (Toxicology Reports, 2014):

Target: T1, aromatase (CYP19A1) (Homo sapiens, UniProt P11511)
T1 sequence (P11511 1-503): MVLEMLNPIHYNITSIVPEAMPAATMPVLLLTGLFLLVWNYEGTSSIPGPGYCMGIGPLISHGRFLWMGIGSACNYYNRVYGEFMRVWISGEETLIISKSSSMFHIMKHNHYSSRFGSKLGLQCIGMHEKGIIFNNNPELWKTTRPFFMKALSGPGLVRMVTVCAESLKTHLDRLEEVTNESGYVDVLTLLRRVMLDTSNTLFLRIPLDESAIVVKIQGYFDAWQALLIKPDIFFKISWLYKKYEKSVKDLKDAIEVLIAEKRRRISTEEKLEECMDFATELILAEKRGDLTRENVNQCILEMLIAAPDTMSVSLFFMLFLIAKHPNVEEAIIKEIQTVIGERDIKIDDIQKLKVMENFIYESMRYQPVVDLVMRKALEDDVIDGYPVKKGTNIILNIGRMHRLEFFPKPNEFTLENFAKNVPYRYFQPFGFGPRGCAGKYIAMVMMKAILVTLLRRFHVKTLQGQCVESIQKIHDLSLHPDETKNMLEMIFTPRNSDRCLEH
Experiment: tritiated water-release aromatase assay in KGN cells after 24-h exposure
Format: cell-based

IC50: 8 nM
SMILES: CC(C)=CCc1c(O)cc(O)c2c1O[C@H](c1ccc(O)cc1)CC2=O [8-PN, 8-prenylnaringenin]
